We go through seven compounds from ChEMBL document CHEMBL1130824, “The novel cyclopropapyrroloindole(CPI) bisalkylators bearing methoxycarbonyl and trifluoromethyl groups” (Bioorg Med Chem Lett, 1998).

Test [1] concerns Colon 26. Description: Compound was tested for antitumor activity against colon 26 murine adenocarcinoma infected CDF1 mice when administered at a dose of 15.6 ug/Kg intravenously. Type of test: functional. As to conditions: Mus musculus, Colon 26, iv; read-out: TGI.
A further test has as its system HeLa. Description: Concentration required to inhibit the growth of HeLaS3 cells. Type of test: functional, cell-based, Homo sapiens.
The test system of test [2] is Colon 26. In words: Compound was tested for antitumor activity against colon 26 murine adenocarcinoma infected CDF1 mice when administered at a dose of 4000 ug/Kg intravenously. Type of test: functional. To be noted: Mus musculus, Colon 26, iv; read-out: TGI.
In test [3] the test system is Colon 26. Description: Compound was tested for antitumor activity against colon 26 murine adenocarcinoma infected CDF1 mice when administered at a dose of 31.3 ug/Kg intravenously. To be noted: Mus musculus, Colon 26, iv; read-out: TGI. Type of test: functional.
For test [4], the system named is Colon 26. Description: Compound was tested for antitumor activity against colon 26 murine adenocarcinoma infected CDF1 mice when administered at a dose of 0.977 ug/Kg intravenously. The format is functional. To be noted: Mus musculus, Colon 26, iv; read-out: TGI.
Where [5] appears, read: Homo sapiens, HeLa, read-out: IC50.

≈ marks a conversion by molar mass, not a printed value.

Broadly, the IC50 is the concentration needed to halve the response being measured. Turning to `COC(=O)c1c(C(F)(F)F)[nH]c2c(O)cc3c(c12)[C@H](CCl)CN3C(=O)c1cc2cc(NC(=O)Nc3ccc4[nH]c(C(=O)N5C[C@@H](CCl)c6c5cc(O)c5[nH]c(C(F)(F)F)c(C(=O)OC)c65)cc4c3)ccc2[nH]1`, the inhibition in vivo at 0.0156 mg/kg in the test on Colon 26 [1] is 94%. Also, in the test with HeLa (setting [5]), the IC50 was determined as 0.091 ng/mL (≈ 0.0875 nM).

In the case of `COC(=O)c1c(C(F)(F)F)[nH]c2c(O)cc3c(c12)[C@H](CCl)CN3C(=O)c1cc2cc(Cc3ccc4[nH]c(C(=O)N5C[C@@H](CCl)c6c5cc(O)c5[nH]c(C(F)(F)F)c(C(=O)OC)c65)cc4c3)ccc2[nH]1`, the IC50 with HeLa (setting [5]) worked out at 33 ng/mL (≈ 33.1 nM). In the test with Colon 26 [2], the inhibition in vivo at 4 mg/kg was determined as 80%.

As to `COC(=O)c1c(C(F)(F)F)[nH]c2c(O)cc3c(c12)[C@H](CCl)CN3C(=O)c1cc2cc(C#Cc3ccc4[nH]c(C(=O)N5C[C@@H](CCl)c6c5cc(O)c5[nH]c(C(F)(F)F)c(C(=O)OC)c65)cc4c3)ccc2[nH]1`, in the test with HeLa (setting [5]), the 50% inhibitory concentration (IC50) was 0.35 ng/mL (≈ 0.348 nM). For the same compound, the inhibition in vivo at 0.0313 mg/kg with Colon 26 [3] turned out to be 82%.

For `COC(=O)c1c(C(F)(F)F)[nH]c2c(O)cc3c(c12)[C@H](CCl)CN3C(=O)c1cc2cc(-c3ccc4[nH]c(C(=O)N5C[C@@H](CCl)c6c5cc(O)c5[nH]c(C(F)(F)F)c(C(=O)OC)c65)cc4c3)ccc2[nH]1`, the half-maximal inhibitory concentration (IC50) with HeLa (hela) stood at 0.0049 ng/mL (≈ 0.00499 nM). For the same compound, the inhibition in vivo at 0.000977 mg/kg with Colon 26 [4] came out at 84%.

Consider `Cc1c[nH]c2c(O)cc3c(c12)[C@H](CCl)CN3C(=O)c1cc2cc(NC(=O)Nc3ccc4[nH]c(C(=O)N5C[C@@H](CCl)c6c5cc(O)c5[nH]cc(C)c65)cc4c3)ccc2[nH]1` [BIZELESIN], for which the inhibition in vivo at 0.0156 mg/kg with Colon 26 [1] stood at 90%. Moreover, in the test with HeLa (setting [5]), the 50% inhibitory concentration (IC50) worked out at 0.06 ng/mL (≈ 0.0736 nM).

As to `COC(=O)c1c(C(F)(F)F)[nH]c2c(O)cc3c(c12)[C@H](CCl)CN3C(=O)c1cc2cc(Oc3ccc4[nH]c(C(=O)N5C[C@@H](CCl)c6c5cc(O)c5[nH]c(C(F)(F)F)c(C(=O)OC)c65)cc4c3)ccc2[nH]1`, the IC50 in the test with HeLa (setting [5]) came to 22 ng/mL (≈ 22.1 nM). In addition, the inhibition in vivo at 4 mg/kg with Colon 26 [2] was 88%.

As to `COC(=O)c1c(C(F)(F)F)[nH]c2c(O)cc3c(c12)[C@H](CCl)CN3C(=O)c1cc2cc(CCc3ccc4[nH]c(C(=O)N5C[C@@H](CCl)c6c5cc(O)c5[nH]c(C(F)(F)F)c(C(=O)OC)c65)cc4c3)ccc2[nH]1`, the half-maximal inhibitory concentration (IC50) in the test on HeLa (setting [5]) is 0.21 ng/mL (≈ 0.208 nM). For the same compound, in the test on Colon 26 [3], the inhibition in vivo at 0.0313 mg/kg turned out to be 87%.
